{"source": "paper PMC12621175", "about": "“Scaffold Fusion and SAR Transfer with a Chemical Language Model Generates Novel Liver X Receptor Modulators” (Journal of Medicinal Chemistry, 2025)", "key": {"[1]": {"system": "LXR/retinoid X receptor (RXR) heterodimer", "assay": "full-length LXR assay (LXR-responsive ABCA1 reporter, endogenous LXR) in HEK293T and HepG2 cells", "type": "cell-based", "settings": "vs 0.1% DMSO", "source_text": "Intrigued by the initial data on LXR modulation, we further investigated the mode-of-action of designs 1-3. As the Gal4 hybrid reporter gene assay is artificial and overexpresses LXR, we next examined LXR modulation by 1-3 in a full-length LXR assay (Figure a) based on the endogenous expression of the LXR/retinoid X receptor (RXR) heterodimer (Figure S2). Upon activation, LXR binds to response elements within the ATP-binding cassette transporter A1 (ABCA1, an LXR target gene) promoter of the reporter. […] The designs were next checked for antiproliferative effects that may compromise further in vitro characterization. […] Therefore, and due to the weak efficacy of 2, we focused further biological characterization on 1 and 3.\n(§1) For the hybrid reporter gene assays, the previously reported Gal4-fusion receptor plasmids pFA-CMV-hRORα-LBD, pFA-CMV-hRORβ-LBD, pFA-CMV-hRORγ-LBD, pFA-CMV-hLXRα-LBD, pFA-CMV-hLXRβ-LBD, pFA-CMV-hFXR-LBD, pFA-CMV-hPXR-LBD, and pFA-CMV-hRXRα-LBD, coding for the hinge region, and LBD of the canonical isoform of the respective nuclear receptor were used. pFR-Luc (Stratagene) was used as the reporter plasmid, and pRL-SV40 (Promega) was used in all assays for the normalization of transfection efficiency and cell growth. pECE-SV40-Gal4-VP16 was a gift from Lea Sistonen (Addgene plasmid #71728). The LXR-responsive reporter ABCA1-pGL3 was used for the full-length reporter gene assay.\n(§2) The day before transfection, HEK293T cells were seeded in 96-well plates (4 × 10^4 cells/well). Before transfection, the medium was changed to Opti-MEM without any supplements. […] Luminescence was measured with a Spark 10 M luminometer (Tecan Deutschland GmbH). […] EC50/IC50 values and the standard errors thereof were calculated with the mean fold activation values by OriginPro, Version 2025 (OriginLab Corporation, Northampton, MA, USA), fitting a dose–response curve with a variable Hill slope (Levenberg–Marquardt algorithm). […]"}, "RORα (NR1F1)": {"biological_target": "T1, RORα (NR1F1) (Homo sapiens, UniProt P35398)", "T1 construct": "coding for the hinge region, and LBD of the canonical isoform of the respective nuclear receptor; expressed in transfected cells; host or cells: HEK293T", "T1 sequence (P35398 272-510 limits assumed)": "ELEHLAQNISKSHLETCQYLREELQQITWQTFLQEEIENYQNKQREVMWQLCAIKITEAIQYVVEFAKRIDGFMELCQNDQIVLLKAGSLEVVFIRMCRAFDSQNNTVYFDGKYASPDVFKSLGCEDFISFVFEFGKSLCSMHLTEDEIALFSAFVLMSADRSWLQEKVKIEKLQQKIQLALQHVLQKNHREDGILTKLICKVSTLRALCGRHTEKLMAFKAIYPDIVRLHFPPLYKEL", "assay": "Gal4-RORα hybrid reporter gene assay (off-target profiling)", "type": "cell-based", "source_text": "as §1, §2"}, "APOE": {"system": "APOE", "assay": "qPCR of LXR-regulated mRNA expression in HepG2: APOE", "type": "cell-based, human", "settings": "HepG2, 24 h"}, "[2]": {"assay": "metabolic stability assay in rat liver microsomes", "type": "in vitro ADME", "settings": "10 μM", "experimental": "The dissolved test compound (5 μL, final concentration 10 μM) was preincubated at 37 °C in 432 μL of phosphate buffer (0.1 M, pH 7.4) together with a 50 μL NADPH regenerating system (30 mM glucose-6-phosphate, 4 U/mL glucose-6-phosphate dehydrogenase, 10 mM NADP, and 30 mM MgCl2). After 5 min, the reaction was started by the addition of 13 μL of microsome mix from the liver of Sprague–Dawley rats (Invitrogen; 20 mg protein/mL in 0.1 M phosphate buffer) in a shaking water bath at 37 °C. The reaction was stopped by the addition of 500 μL of ice-cold methanol at 0, 15, 30, and 60 min. The samples were centrifuged at 5000 g for 5 min at 4 °C. The supernatants were analyzed, and the test compound was quantified by HPLC: The composition of the mobile phase is adapted tot the test compound in a range of 40-90% acetonitrile and 10-60% water (0.1% formic acid); flow rate: 1 mL/min; stationary phase: PurospherⓇ STAR, RP18, 5 μm, 125 × 4, precolumn: PurospherⓇ STAR, RP18, 5 μm, 4 × 4; detection wavelength: 254 and 280 nm; injection volume: 50 μL. […] The amounts of the test compound were quantified by an external calibration curve. Data are expressed as the mean ± SEM remaining compound from three independent experiments."}}, "note": "Entries after “also recorded” stand apart in the source; their conditions may differ.", "data": [{"smiles": "CCN(C(=O)c1ccccc1)c1ccc(C(O)(C(F)(F)F)C(F)(F)F)cc1", "note": "[Compound 1, N-Ethyl-N-(4-[1,1,1,3,3,3-hexafluoro-2-hydroxypropan-2-yl]phenyl)benzamide]", "values": [{"measurement": "LXR modulation in LXR-responsive ABCA1 reporter gene assay", "setting": "[1]; 3 μM", "result": "partial LXR agonists; also recorded: partial LXR agonism"}, {"measurement": "RORα activity", "setting": "RORα (NR1F1); off-target profiling, compared with T0901317", "result": "no activity; also recorded: did not affect"}, {"measurement": "APOE mRNA expression", "setting": "APOE; 3 μM", "result": "induced"}, {"measurement": "metabolic stability", "setting": "[2]", "result": "> 60", "unit": "min"}]}, {"smiles": "CS(=O)(=O)c1cccc(-c2ccc(CN(Cc3cccc(C(F)(F)F)c3Cl)CC(c3ccccc3)c3ccccc3)cc2)c1", "note": "[Compound 3, N-(2-Chloro-3-[trifluoromethyl]benzyl)-N-([3′-{methylsulfonyl}-{1,1′-biphenyl}-4-yl]methyl)-2,2-diphenylethan-1-amine]", "values": [{"measurement": "LXR modulation in LXR-responsive ABCA1 reporter gene assay", "setting": "[1]; 10 μM", "result": "robustly blocked LXR activation; also recorded: inverse agonist"}, {"measurement": "RORα activity", "setting": "RORα (NR1F1); 30 μM", "result": "only activated RORα with low efficacy; also recorded: weak RORα activation"}, {"measurement": "APOE mRNA expression", "setting": "APOE; 30 μM", "result": "did not significantly alter the expression; also recorded: only a weak impact"}, {"measurement": "metabolic stability", "setting": "[2]", "result": "> 60", "unit": "min"}]}]}
